A word on the chromatographic logP: it is a lipophilicity value derived from retention on a column.

Read-outs that look alike come from different tables or passages of the source. Some results are limits rather than exact numbers.

For data set [1] the following is noted: known values used for calibration; cited from earlier work.
A short description of data set [2]: Membrane filtration permeability, Cosmoline 1102 soiled system. Format: physicochemical. As to conditions: 1% oil, 140° F., HPLC. An excerpt: (§1) A Membrex Benchmark GX (Fairfield, N.J.) lab-scale rotating membrane filtration unit was used for all permeability studies. Membrane cartridges were made of polyacrylonitrile with a 0.05 um pore size (Part #0567, Osmonics Corp., Minnetonka, Minn.).
(§2) One to two liters of the aqueous alkaline solution of the present invention in its diluted form, usually including 0.15% surfactant and 0.05% potassium carbonate, was placed in both the customer (or initial) and holding tanks (appropriately sized glass beakers). For experiments with soil, oil was added at a 1% level to both tanks. The tanks were heated with magnetic stirring on hotplates to either 140° F. or 100° F. The temperature was maintained throughout each experiment with RTD temperature probes interfaced to the hotplates. The rotation rate of the membrane filtration unit was 3000 RPM. Material from the holding tank was pumped into the membrane filtration unit at a flow of 600 ml/min. The outlet pressure was adjusted to achieve a 5 psi pressure drop across the membrane, resulting in permeate flows of approximately 100-300 ml/min depending on the soil and the operating temperature. The transfer line from the customer tank to the holding tank was adjusted to equal the permeate flow rate in order to maintain a constant level in both customer and holding tank. One cycle or turnover is defined to be the time at which the cumulative volume of permeate equals the initial volume of the customer tank. Permeate samples were collected at 1, 5 and/or 10 cycles.
(§3) A 0.05 um PAN membrane was used in the filtration.
(§4) Surfactant levels in permeate samples were determined by TOC (unsoiled studies only) and by HPLC/ELSD.
(§5) A sample of the initial cleaning solution was collected before addition of oil (if added) and before starting membrane operation. This initial cleaning soultion sample is defined to be the 100% permeable concentration. Serial dilutions of the 100% permeable sample were made to obtain calibration samples for the HPLC analysis. Point-to-point calibration curves were used for HPLC quantitation due to the non-linear nature of the ELSD response. For TOC analysis the initial cleaning solution sample was used for the single point calibration. For surfactants with multiple surfactant oligomers, individual oligomer permeability and overall surfactant permeability were determined. The overall surfactant permeability was calculated from the average of the oligomer results, except for Surfonic® L108/85-5 where the result for major C8 hydrophobe was used.
(§6) Example 3 was performed in the same way as Example 2 but in the presence of soil. The method described in Example 2 was followed in Example 3. The permeability performance of surfactants in soiled systems is of interest given the desire to separate the aqueous cleaning materials from soil. Two oils were evaluated in this study: Cosmoline® 1102 and Pennzoil® 80W90 oil.
The permeability of four surfactants was evaluated at 100° F. in the presence of 1% Cosmoline® 1102 oil. […] The results are listed in Table N and are plotted in FIG. 26 with a comparison to the 140° F. results.

The conditions of data set [3]: 1% aqueous solutions, Table H; cited from earlier work.
The nature of data set [4]: Surfactant Log P estimate by reversed phase HPLC. The method, then: Reversed phase HPLC was performed on all samples. Samples were filtered through Gelman 0.45 um PVDF filters and analyzed. Almost all separations were utilized the following conditions:
Column: Supelcosil LC-18 column, 15 cm×4.6 mm, 5 um particle size (Supelco, Bellefonte, Pa.).
Flow: 1 ml/min. Temperature: ambient Injection Volume: 50 ul Mobile Phase A: 70:30 methanol: water (v+v) with 10 mM ammonium acetate.
Mobile Phase B: 100% methanol.
The ELSD was operated at 40° C., with a nitrogen flow rate of 1.8 l/min. A Chromeleon Chromatography Data system (Dionex Corp. Sunnyvale, Calif.) was used to collect and process the HPLC data.
A reversed phase HPLC method was used to estimate surfactant Log P values. The HPLC capacity factor, k′, for each material was determined according to the equation: […]
The column void time was determined from the elution time of unretained salt. […] (FIG. 6).
The reversed phase HPLC separation used herein separates primarily based on the size of the hydrophobe. […] The peak maximum retention time was used to determine the Log P estimate for surfactants with either the narrow or the broad single peak profiles. […] (FIG. 7). […] In addition, the retention time of the individual hydrophobe peaks was used to calculate Log P values for these oligomers.

Data set [5] is described as follows: Membrane filtration permeability, Pennzoil 80W90 soiled system. It is filed as physicochemical. Particulars: 1% oil, 140° F., HPLC.
Text: as §1, §2, §3, §4, §5, §6

Data set [6] can be described thus: Membrane filtration permeability, unsoiled system. It is filed as physicochemical.
Text: as §1, §2, §3, §4, §5

[7] abbreviates: single peak or individual hydrophobe peak, alkyl benzene standards.
[8] abbreviates: unsoiled, Cycle 1, 0.05 um PAN membrane.
Where [9] appears, read: unsoiled, Cycle 5, 0.05 um PAN membrane.
Where [10] appears, read: unsoiled, Cycle 5, 140° F., HPLC (Table M).
[11] abbreviates: unsoiled, Cycle 10, 0.05 um PAN membrane.

With `CCc1ccccc1` [ethyl benzene], the “Log P of alkylbenzene retention time standards” value (from here on “Log P”) in data set [1] is on record as 3.13.
Regarding “cocamidopropyl betaine ammonium salt [Foamtaine ® CAB-A]”, the “Permeability, Cosmoline 1102-Cycle 5” value in data set [2] came to 9%. The “Cloud Point (° C.)” value in data set [3] is “None”. For the same molecule, the “LogP, HPLC estimate” value in data set [4] was 3.6.
On to `CCCCCCCC[N+](C)(C)[O-]` [Mackamine ® C8, linear octyl dimethyl amine oxide], for which, in data set [2], the “Permeability, Cosmoline 1102-Cycle 1” value is recorded as 94%; the “Permeability, Cosmoline 1102-Cycle 5” value is on record as 95%; the “Permeability, Cosmoline 1102-Cycle 10” value turned out to be 99%. Also, the “Cloud Point (° C.)” value in data set [3] is “None”. Moreover, in data set [4] (setting [7]), the “LogP, HPLC estimate” value is 2.5. Besides, in data set [5], the “Permeability, Pennzoil80W90-Cycle 5” value stood at 95%. Also, in data set [6] (setting [8]), the “% Permeability (HPLC)” value is on record as 104% and the “% Permeability (TOC)” value is recorded as 101%. In data set [6] (setting [9]), the “% Permeability (HPLC)” value is given as 105% and the “% Permeability (TOC)” value worked out at 108%. The “% Permeability” value in data set [6] (setting [10]) is on record as 105%. For the same molecule, in data set [6] (setting [11]), the “% Permeability (HPLC)” value is on record as 102% and the “% Permeability (TOC)” value is recorded as 117%.
For C8 mono-glucoside [Glucopon ® 425/C8], the “Permeability, Cosmoline 1102-Cycle 5” value in data set [2] is listed as 74%. For the same molecule, the “LogP, HPLC estimate” value in data set [4] was 2.5. In data set [5], the “Permeability, Pennzoil80W90-Cycle 5” value worked out at 97%. In data set [6] (not told), the “% Permeability” value is given as 104%.
Turning to C10 mono-glucoside [Glucopon ® 425/C10], in data set [2], the “Permeability, Cosmoline 1102-Cycle 5” value turned out to be 22%. Also, in data set [4], the “LogP, HPLC estimate” value is 3.2. Besides, in data set [5], the “Permeability, Pennzoil80W90-Cycle 5” value is 77%. In addition, the “% Permeability” value in data set [6] (not told) is reported as 87%.
On to `CCCCCCc1ccccc1` [hexyl benzene], for which the “Log P” value in data set [1] is on record as 5.24.
As for `CCCCCCCCCCCC[N+](C)(C)[O-]` [Barlox ® 12, dodecyl dimethyl amine oxide], the “Cloud Point (° C.)” value in data set [3] was “None”. The chromatographic logP in data set [4] is 4.5. Also, in data set [5], the “Permeability, Pennzoil80W90-Cycle 5” value is 63%. For the same molecule, the “% Permeability” value in data set [6] (setting [10]) is recorded as 80%.
For C14 mono-glucoside [Glucopon ® 425/C14], the “Permeability, Cosmoline 1102-Cycle 5” value in data set [2] is under 20%. Moreover, the “LogP, HPLC estimate” value in data set [4] is reported as 5.2. In addition, the “Permeability, Pennzoil80W90-Cycle 5” value in data set [5] is 39%. Besides, the “% Permeability” value in data set [6] (not told) came out at 35%.
Turning to C12 mono-glucoside [Glucopon ® 425/C12], in data set [2], the “Permeability, Cosmoline 1102-Cycle 5” value is listed as under 20%. In addition, the “LogP, HPLC estimate” value in data set [4] is on record as 4.3. Moreover, in data set [5], the “Permeability, Pennzoil80W90-Cycle 5” value was 49%. In addition, the “% Permeability” value in data set [6] (not told) is given as 44%.
In the case of `CCCCCCCCCC[N+](C)(C)[O-]` [Mackamine ® C10, linear decyl dimethyl amine oxide], the “Permeability, Cosmoline 1102-Cycle 5” value in data set [2] is 53%. In addition, the “Cloud Point (° C.)” value in data set [3] was “None”. For the same molecule, the “LogP, HPLC estimate” value in data set [4] (setting [7]) was 3.4.
Consider `CCCCCCCCc1ccccc1` [octyl benzene], for which the “Log P” value in data set [1] is recorded as 6.30.

These data come from patent US20040014624A1, “Recylable cleaning compositions” (priority 2003, published 2004).
